Where no end group is shown, it is not given here.
Tests used:
HIV-1IIIB = test: HIV-1 antiviral assay in CEM-SS cells (MTS readout)
[1] = system: Primary Human endothelial cells (HUVEC); test: Endothelial cell migration assay; assay type: cell-based; conditions: 10 micrograms per ml, 22 hours
Description: Thereafter, designated concentration of testing peptides—10 micrograms per ml—was added in duplicate wells.

[2] = system: hepatitis B virus (HBV) ayw strain; test: HBV experimental assay system, secreted HBV DNA by TaqMan PCR; assay type: cell-based; conditions: 10 micrograms per ml; HepG2-2.2.15 cells; six days
HUVEC = test: Endothelial tube formation assay; assay type: cell-based, human; conditions: 10 micrograms per ml, 20 hours
From the text: […] control wes vehicle only. […] Raw data were expressed as average tubule lenghs in pixels±standard deviation.

HCMV strain AD169 = test: HCMV plaque formation assay in MRC-5 cells; assay type: cell-based; conditions: 10 micrograms per ml, 7-10 days
From the text: Cells were split twic a week 1:2.
Ganciclovir was used as positive control.

murine spleen cells = test: Th1/Th2 cytokine profiling assay in Ovalbumin-restimulated spleen cells; assay type: cell-based, Balb/c mice; conditions: 10 micrograms per ml, Ovalbumin restimulation, 72 hours
Streptococcus pneumoniae = Streptococcus pneumoniae growth assay; assay type: cell-based; conditions: 10 micrograms per ml; 5×10^5 CFU/mL

Compound | antiviral activity of positive control compounds (HIV-1) (HIV-1IIIB) | increase of the migration of human endothelial cells [1] [%] | inhibition of HBV replication as compared to the virus control infection [2] [%] | inhibition of the tube formation of human endothelial cells (HUVEC) [%] | inhibition of HCMV plaque formation as compared to the virus control (HCMV strain AD169) | change of the production of IFN-γ (murine spleen cells) | change of the production of IL-5 (murine spleen cells) | change of the production of TNF-a (murine spleen cells) | induction (increase) of the production of IL-2 (murine spleen cells) [%] | induction (increase) of the production of IL-4 (murine spleen cells) [%] | inhibition of the growth of Streptococcus pneumoniae (Streptococcus pneumoniae) [%]
Cc1cn([C@H]2C[C@H](N=[N+]=[N-])[C@@H](CO)O2)c(=O)[nH]c1=O [AZT] | expected levels of antiviral activity | – | – | – | – | – | – | – | – | – | –
Tyr-Ser-Ala-Tyr-Pro-Asp-Ser-Val-Pro-Met-Met-Ser-OH [Peptide 1] | – | 4 | 51.1 | 4 | did not inhibit | did not significantly change | did not significantly change | did not significantly change | 82.2 | 74.3 | 100
CC(C)(C)NC(=O)[C@@H]1CN(Cc2cccnc2)CCN1C[C@@H](O)C[C@@H](Cc1ccccc1)C(=O)N[C@H]1c2ccccc2C[C@H]1O [indinavir] | expected levels of antiviral activity | – | – | – | – | – | – | – | – | – | –
Trp-Met-Asn-Ser-Thr-Gly-Phe-Thr-Lys-Val-Cys-Gly-Ala-Pro-Pro-Cys-OH (WMNSTGFTKVCGAPPC-OH; cysteine pairing not given here) [Peptide 2] | – | 7 | 53.2 | 8 | did not inhibit | did not significantly change | did not significantly change | did not significantly change | 92.6 | 87.3 | 100
